Measurements from patent US20030166605A1, “Method of minimizing damage to heart tissue during cardiac surgery and cardiac transplantation” (priority 1999, published 2003).
Like-named read-outs stand apart in the source and are kept apart here.

Format: in vivo
Details: for Cardiac Index, slope of percentage change from baseline (Slope ± SE) / Pulmonary capillary wedge pressure, slope of percentage change from baseline (Slope ± SE) / Systolic Blood Pressure, slope of percentage change from baseline (Slope ± SE): per hour; for Cardiac Index, slope of percentage change from baseline (Slope ± SE) / Pulmonary capillary wedge pressure, slope of percentage change from baseline (Slope ± SE) / Systolic Blood Pressure, slope of percentage change from baseline (Slope ± SE) / Heart Rate, slope of percentage change from baseline (Slope ± SE): first 24 postoperative hours; for Heart Rate, slope of percentage change from baseline (Slope ± SE): percentage change per hour; for absolute mean heart rate: 24 hours after surgery; for patients who received dopamine / use of any inotropic agent: first 7 days after surgery; for patients who received dopamine: placebo 77%; for use of any inotropic agent: placebo 79%; for insertions of an intraaortic balloon pump for low cardiac output: nine in placebo group; for death rate: placebo 6.0%
Description: A double blind, placebo controlled trial was performed on 253 patients randomized into three groups. The objective of the study was to evaluate the safety, tolerance and efficacy of adenosine in patients undergoing coronary artery bypass surgery. Inadequate myocardial protection in patients undergoing coronary artery bypass surgery contributes to overall hospital mortality and morbidity.
The treatments included the intraoperative administration of cold blood cardioplegia, blood cardioplegia including 500 μM adenosine (“low dose adenosine”), and blood cardioplegia including 200 mM adenosine (“high dose adenosine”). Patients receiving adenosine were also given an infusion of adenosine (200 μg/kg/min) 10 minutes before and 15 minutes after removal of the aortic crossclamp. Invasive and non-invasive measurements of ventricular performance were obtained before, during and after surgery.
Exclusion criteria included known or suspected pregnancy, known hypersensitivity to adenosine, and enrollment in another clinical trial study.
Study Design: 253 patients were split into three groups. Group A patients (n=84) received placebo and were given standard hyperkalemic cold blood cardioplegia. Group B patients (low dose adenosine, n=84) were given hyperkalemic cold blood cardioplegia containing 500 μM adenosine. Group C patients (high dose adenosine) were given hyperkalemic cold blood cardioplegia containing 200 mM adenosine. The patients who received adenosine cardioplegia were also exposed to a 10 minute infusion of adenosine pre-treatment (200 μg/kg/min) immediately before application of the aortic crossclamp and a 15 minute infusion of adenosine immediately after removing the crossclamp.
Before surgery, patients were evaluated for the degree of ischemic disease by history, echocardiography, and cardiac catheterization. In the operating room, hemodynamic measurements were obtained and recorded just before initiating cardiopulmonary bypass and 15, 30, 45 and 60 minutes and 2, 3, 4, 5, and 8 hours after cessation of bypass. In patients requiring intravenous inotropic medications in the postoperative period, hemodynamic monitoring was continued with measurements of specified parameters every 2 hours for 24 hours, and then every 4 hours until the inotropic medications were discontinued or it was ascertained that monitoring was no longer helpful in the management of the patient.
Invasive hemodynamic measurements included systolic blood pressure, heart rate, central venous pressure, pulmonary artery pressure, pulmonary capillary wedge pressure and cardiac output. The cardiac index, stroke volume, systemic vascular resistance, pulmonary vascular resistance, right ventricular stroke work index and left ventricular stroke index were derived. The cardiac output measurements were obtained using a thermodilution catheter and computer. Noninvasive heart function studies included 12-lead electrocardiograms, preoperative stress dobutamine echocardiography, and pre- and post-operative transthoracic and transesophageal echocardiograms. Patients were monitored from the time of enrollment to follow-up 4 to 6 weeks after discharge from the hospital. This included routine blood work and chemistries, arterial blood gases, pH, creatine kinase (CK)-MB concentrations, and pulse oximetry.
The primary endpoints of the study were reduction in total dopamine use during the first 7 days, reduction in all inotropic support required during the first 7 days, reduction in the use of dopamine to less than 5 μg/kg/min.
There were 21 secondary endpoints, including improvement in postoperative hemodynamics, reduction in the use of the intraaortic balloon pump, reduction in the incidence of myocardial infarction, and decrease in the mortality rate.
All patients who received study treatment and underwent coronary bypass surgery were included in the intent-to-treat analysis. […]

[1] = Group B, low dose adenosine (500 μM cardioplegia + infusion)
[2] = Group C, high dose adenosine (200 mM cardioplegia + infusion)

Which results are given for `Nc1ncnc2c1ncn2[C@@H]1O[C@H](CO)[C@@H](O)[C@H]1O` [adenosine]?
Cardiac Index, slope of percentage change from baseline (Slope ± SE) [1]: 1.130 ± 0.105; Pulmonary capillary wedge pressure, slope of percentage change from baseline (Slope ± SE) [1]: 0.688 ± 0.249; Systolic Blood Pressure, slope of percentage change from baseline (Slope ± SE) [1]: 0.387 ± 0.060; Heart Rate, slope of percentage change from baseline (Slope ± SE) (Group B, low dose adenosine (500 μM in cold blood cardioplegia + 200 μg/kg/min infusion)): 0.510 ± 0.078; Cardiac Index, slope of percentage change from baseline (Slope ± SE) [2]: 1.468 ± 0.112; Pulmonary capillary wedge pressure, slope of percentage change from baseline (Slope ± SE) [2]: −0.869 ± 0.288; Systolic Blood Pressure, slope of percentage change from baseline (Slope ± SE) [2]: 0.440 ± 0.063; Heart Rate, slope of percentage change from baseline (Slope ± SE) (Group C, high dose adenosine (200 mM in cold blood cardioplegia + 200 μg/kg/min infusion)): 0.820 ± 0.081; high-dose dopamine support (>5 μg/kg/min) (high dose adenosine group versus placebo): trend toward a decrease; absolute mean heart rate (high dose adenosine group): 96.8±5.4 beats per minute; patients who received dopamine (high dose adenosine group): 79%; use of any inotropic agent (high dose adenosine group): 80%; insertions of an intraaortic balloon pump for low cardiac output (high dose adenosine group): five; death rate (high dose adenosine group): 1.2%; postoperative MI rate (high dose adenosine group, placebo 9.5%): 1.2%; percentage of patients experiencing one of the composite adverse events (high dose dopamine, epinephrine use, intraaortic balloon pump, MI, death) (high dose adenosine versus placebo, p=0.006): lower; safety and tolerance (human, in vivo): safe and well tolerated; absolute mean heart rate (low dose adenosine group): 90.7±3.6 beats per minute; patients who received dopamine (low dose adenosine group): 71%; use of any inotropic agent (low dose adenosine group): 73%; insertions of an intraaortic balloon pump for low cardiac output (low dose adenosine group): two; death rate (low dose adenosine group): 3.6%
